Results from US20240174690A1, “ANNULATED 2-AMINO-3-CYANO THIOPHENES AND DERIVATIVES FOR THE TREATMENT OF CANCER” (BOEHRINGER INGELHEIM INTERNATIONAL GMBH, priority 2021, published 2024).
≈ marks a conversion by molar mass, not a printed value. Like-named read-outs stand apart in the source and are kept apart here.

Tests used:
[1] = test system: KRAS G12C-dependent Ba/F3 cells; experiment: Ba/F3 proliferation assay, KRAS G12C; assay type: cell-based; conditions: Mus musculus, BaF3, 72 h, AlamarBlue
In short: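 Proliferation of mutant-KRAS-driven Ba/F3 cells cultured without IL-3 is followed with AlamarBlue after compound addition. Curves are fitted from duplicate wells.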

[2] = Solubility measurement (DMSO solution method), McIlvaine buffer pH 4.5 or 6.8; assay type: physicochemical; conditions: aqueous buffer, kinetic from dmso stock, DMSO stock diluted to 250 μM, 24 h shaking at ambient temperature
In short: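 Filtrate concentration by LC-UV, calibrated to a known-concentration reference dissolved completely in acetonitrile/water (1:1). Samples came from 250 µM final dilutions of DMSO stock in pH 4.5 or 6.8 McIlvaine buffer, shaken 24 h at ambient temperature, then filtered.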

[3] = Plasma protein binding assay (PPB), equilibrium dialysis, 10% FCS in PBS; assay type: in vitro ADME; conditions: bovine, read-out: PPB 10% FCS (% fu)
In short: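 Test compound (1-10 μmol/L) in 10% FCS in PBS was dialysed for 3-5 h at 37° C versus PBS ± dextran across a semipermeable membrane. LC-MS of both compartments after protein precipitation gave Cserum and Cbuffer, from which the unbound fraction fu was derived.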

[4] = test system: LOVO cells; experiment: LOVO CTG proliferation assay (120 h) (CRC, G13D); assay type: cell-based; conditions: Homo sapiens, CTG 120 h
In short: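 IC50 comes from a four-parameter fit of CellTiter-Glo viability, expressed as RLU relative to DMSO wells. Compound exposure lasted 120 h in LOVO cells seeded the day before at 1000 cells/well in DMEM with 10% fetal calf serum.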

[5] = test system: NCI-H2122 cells; experiment: NCI-H2122 CTG proliferation assay (120 h) (NSCLC, G12C); assay type: cell-based; conditions: Homo sapiens
In short: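 Proliferation was read by CellTiter-Glo luminescence after 120 h of compound exposure, starting one day after seeding 200 NCI-H2122 (G12C) cells per well in RPMI/10% FCS. RLU relative to DMSO wells gave percent viability, and four-parameter nonlinear regression gave IC50.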

[6] = test system: AsPC-1 cells; experiment: AsPC-1 CTG proliferation assay (120 h) (pancreatic cancer, G12D); assay type: cell-based; conditions: Homo sapiens, ASPC1
In short: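 CellTiter-Glo luminescence, normalised to DMSO wells, measured viability after 120 h compound exposure. Cells were AsPC-1 pancreatic cancer (G12D) plated at 2000 per well in RPMI/10% FCS the day before dosing. IC50 derived by four-parameter regression.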

[7] = McIlvaine buffer pH 4.5, read-out: solubility pH 4.5
[8] = McIlvaine buffer pH 6.8, read-out: solubility pH 6.8

SMILES | IC50 [1] | solubility at 24 h [2, 7] | solubility at 24 h [2, 8] | fraction unbound [3] | IC50 [4] | IC50 [5] | IC50 [6]
C[C@H](Oc1nc(-c2onc3c2CCC[C@@]32CCCc3sc(N)c(C#N)c32)cc(N2CCNC3(CC3)C2)n1)[C@@H]1CCCN1C [I-2] | 493 nM | > 142 µg/mL | > 131 µg/mL | 0.69 | – | – | –
C[C@H](Oc1cc(N2CCNC3(COC3)C2)nc(-c2onc3c2CCC[C@@]32CCCc3sc(N)c(C#N)c32)n1)[C@@H]1CCCN1C [I-4] | 69 nM | > 148 µg/mL | > 140 µg/mL | – | 205 nM | 3750 nM | 64 nM
C[C@H](Oc1cc(-c2ccn(CC(C)(C)O)n2)nc(-c2onc3c2CCC[C@@]32CCCc3sc(N)c(C#N)c32)n1)[C@@H]1CCCN1C [I-26] | 17 nM | – | – | 0.23 | 281 nM | 1070 nM | 2240 nM
C[C@H](O)Cn1ccc(-c2cc(O[C@@H](C)[C@@H]3CCCN3C)nc(-c3onc4c3CCC[C@@]43CCCc4sc(N)c(C#N)c43)n2)n1 [I-31] | 9 nM | > 128 µg/mL | 118 µg/mL (≈ 192 µM) | 0.53 | – | – | –
C[C@H](Oc1cc(N2CCN(C)C3(COC3)C2)nc(-c2onc3c2CCC[C@@]32CCCc3sc(N)c(C#N)c32)n1)[C@@H]1C[C@@H](F)CN1C [I-37] | 1180 nM | > 149 µg/mL | 17 µg/mL (≈ 26.2 µM) | 0.26 | 165 nM | – | 609 nM
C[C@H](Oc1cc(N2CCN(C)C3(CC3)C2)nc(-c2onc3c2CCC[C@@]32CCCc3sc(N)c(C#N)c32)n1)[C@@H]1C[C@@H](F)CN1C [I-39] | 613 nM | > 147 µg/mL | < 1 µg/mL | 0.07 | 354 nM | – | 149 nM
C[C@H](Oc1nc(-c2onc3c2CCC[C@@]32CCCc3sc(N)c(C#N)c32)cc(N2CCN(C)C3(CC3)C2)n1)[C@@H]1CCCN1C [I-40] | 913 nM | – | – | 0.51 | – | – | –
C[C@H](Oc1cc(N2CCN(C)C3(CC3)C2)nc(-c2onc3c2CCC[C@@]32CCCc3sc(N)c(C#N)c32)n1)[C@@H]1CCCN1C [I-41] | 233 nM | > 137 µg/mL | 118 µg/mL (≈ 192 µM) | – | 304 nM | 3560 nM | 297 nM
C[C@H]1CN(C)CCCN1c1nc(-c2onc3c2CCC[C@@]32CCCc3sc(N)c(C#N)c32)cc(N2CCN(C)C3(CC3)C2)n1 [I-42] | 867 nM | > 141 µg/mL | 99 µg/mL (≈ 161 µM) | – | – | – | –
C[C@H](Oc1cc(N2CCN(C)C3(CCC3)C2)nc(-c2onc3c2CCC[C@@]32CCCc3sc(N)c(C#N)c32)n1)[C@@H]1CCCN1C [I-44] | 509 nM | – | – | 0.22 | 925 nM | 1270 nM | 980 nM
C[C@H](Oc1cc(N2CCNC3(CC3)C2)nc(-c2onc3c2CCC[C@@]32CCCc3sc(N)c(C#N)c32)n1)[C@@H]1C[C@@H](F)CN1C [I-45] | 280 nM | > 148 µg/mL | > 86 µg/mL | 0.14 | 315 nM | – | 32 nM
CO[C@H]1CCN(C)[C@@H]1[C@H](C)Oc1cc(-n2ccc(CC(=O)NC(C)C)n2)nc(-c2onc3c2CCC[C@@]32CCCc3sc(N)c(C#N)c32)n1 [I-48] | 4 nM | > 161 µg/mL | 7 µg/mL (≈ 10.2 µM) | 0.12 | 23 nM | – | 384 nM
CO[C@H]1CCN(C)[C@@H]1[C@H](C)Oc1cc(N2CCNC3(CC3)C2)nc(-c2onc3c2CCC[C@@]32CCCc3sc(N)c(C#N)c32)n1 [I-49] | 130 nM | > 154 µg/mL | 43 µg/mL (≈ 68.2 µM) | 0.15 | 223 nM | – | 20 nM
CO[C@@H]1C[C@@H]([C@H](C)Oc2cc(N3CCN(C)C4(CC4)C3)nc(-c3onc4c3CCC[C@@]43CCCc4sc(N)c(C#N)c43)n2)N(C)C1 [I-50] | 448 nM | > 139 µg/mL | 95 µg/mL (≈ 147 µM) | 0.14 | 439 nM | – | 115 nM
CO[C@H]1CCN(C)[C@@H]1[C@H](C)Oc1cc(-n2ccc(C(=O)N[C@@H]3CCOC3)n2)nc(-c2onc3c2CCC[C@@]32CCCc3sc(N)c(C#N)c32)n1 [I-53] | 2 nM | > 152 µg/mL | 5 µg/mL (≈ 7.14 µM) | 0.05 | 29 nM | – | 414 nM
CO[C@H]1CCN(C)[C@@H]1[C@H](C)Oc1cc(-n2ccc(C(=O)N[C@H]3CCOC3)n2)nc(-c2onc3c2CCC[C@@]32CCCc3sc(N)c(C#N)c32)n1 [I-54] | 1 nM | 16 µg/mL (≈ 22.9 µM) | < 1 µg/mL | 0.09 | 32 nM | – | 266 nM
COCCNC(=O)c1ccn(-c2cc(O[C@@H](C)[C@@H]3[C@@H](OC)CCN3C)nc(-c3onc4c3CCC[C@@]43CCCc4sc(N)c(C#N)c43)n2)n1 [I-55] | 2 nM | > 162 µg/mL | 5 µg/mL (≈ 7.27 µM) | 0.06 | 39 nM | – | 565 nM
C[C@H](Oc1cc(-n2ccc(C(=O)N[C@@H]3CCOC3)n2)nc(-c2onc3c2CCC[C@@]32CCCc3sc(N)c(C#N)c32)n1)[C@@H]1CCCN1C [I-56] | 3 nM | 108 µg/mL (≈ 161 µM) | 97 µg/mL (≈ 145 µM) | 0.32 | 23 nM | – | 695 nM
C[C@H](Oc1cc(-n2ccc(C(=O)N[C@H]3CCOC3)n2)nc(-c2onc3c2CCC[C@@]32CCCc3sc(N)c(C#N)c32)n1)[C@@H]1CCCN1C [I-57] | 1 nM | – | – | – | 8 nM | – | 278 nM
COCCNC(=O)c1ccn(-c2cc(O[C@@H](C)[C@@H]3CCCN3C)nc(-c3onc4c3CCC[C@@]43CCCc4sc(N)c(C#N)c43)n2)n1 [I-58] | 4 nM | > 128 µg/mL | 94 µg/mL (≈ 143 µM) | 0.28 | 29 nM | – | 696 nM
C[C@H](NC(=O)c1ccn(-c2cc(O[C@@H](C)[C@@H]3CCCN3C)nc(-c3onc4c3CCC[C@@]43CCCc4sc(N)c(C#N)c43)n2)n1)c1ccccn1 [I-59] | 2 nM | > 150 µg/mL | 15 µg/mL (≈ 21.3 µM) | 0.04 | 22 nM | – | 444 nM
C[C@H](Oc1cc(-n2ccc(C(=O)N(C)C3COC3)n2)nc(-c2onc3c2CCC[C@@]32CCCc3sc(N)c(C#N)c32)n1)[C@@H]1CCCN1C [I-60] | 5 nM | > 158 µg/mL | > 161 µg/mL | 0.1 | 49 nM | – | 779 nM
C[C@@H]1CN(c2cc(O[C@@H](C)[C@@H]3C[C@@H](F)CN3C)nc(-c3noc4c3CCC[C@@]43CCCc4sc(N)c(C#N)c43)n2)CC2(CC2)N1 [II-17] | 373 nM | > 147 µg/mL | 20 µg/mL (≈ 31.6 µM) | 0.09 | 186 nM | – | 251 nM
C[C@H](Oc1cc(N2C[C@H](C)NC3(CC3)C2)nc(-c2noc3c2CCC[C@@]32CCCc3sc(N)c(C#N)c32)n1)[C@@H]1C[C@@H](F)CN1C [II-18] | 429 nM | > 146 µg/mL | 8 µg/mL (≈ 12.6 µM) | 0.11 | 49 nM | – | 45 nM
C[C@H](Oc1cc(N2C[C@H]3CN(C)C[C@H]3C2)nc(-c2noc3c2CCC[C@@]32CCCc3sc(N)c(C#N)c32)n1)[C@@H]1CCCN1C [II-33] | 527 nM | – | – | 0.68 | 737 nM | 4120 nM | 1410 nM
C[C@H](Oc1nc(-c2noc3c2CCC[C@@]32CCCc3sc(N)c(C#N)c32)cc(N2C[C@H](C)N[C@@H](C)C2)n1)[C@@H]1CCCN1C [II-46] | 50 nM | > 150 µg/mL | > 150 µg/mL | – | 1220 nM | 900 nM | 2740 nM
[2H]C([2H])([2H])N1C[C@H](F)C[C@H]1[C@H](C)Oc1cc(N2CCNC3(CC3)C2)nc(-c2noc3c2CCC[C@@]32CCCc3sc(N)c(C#N)c32)n1 [II-208] | 112 nM | – | – | 0.15 | 334 nM | – | 15 nM
[2H]C([2H])([2H])N1C[C@H](F)C[C@H]1[C@H](C)Oc1cc(N2CCN(C)C3(CC3)C2)nc(-c2noc3c2CCC[C@@]32CCCc3sc(N)c(C#N)c32)n1 [II-209] | 271 nM | > 150 µg/mL | < 1 µg/mL | 0.06 | 493 nM | – | 59 nM
